Experimental data as given in ChEMBL document CHEMBL5465560, “Selectivity Literature for EUbOPEN Chemogenomic Library” (2024).
Blank lines part the entries; values can stand above or below the compound they belong to.

Legend:
[1] = target: T1, Dual specificity tyrosine-phosphorylation-regulated kinase 4 (Homo sapiens) (UniProt Q9NR20); experiment: Selectivity interaction (Kinase panel (Z-LYTE Assay)) EUB0001632a DYRK4; conditions: at 10 µM
T1 sequence (whole entry): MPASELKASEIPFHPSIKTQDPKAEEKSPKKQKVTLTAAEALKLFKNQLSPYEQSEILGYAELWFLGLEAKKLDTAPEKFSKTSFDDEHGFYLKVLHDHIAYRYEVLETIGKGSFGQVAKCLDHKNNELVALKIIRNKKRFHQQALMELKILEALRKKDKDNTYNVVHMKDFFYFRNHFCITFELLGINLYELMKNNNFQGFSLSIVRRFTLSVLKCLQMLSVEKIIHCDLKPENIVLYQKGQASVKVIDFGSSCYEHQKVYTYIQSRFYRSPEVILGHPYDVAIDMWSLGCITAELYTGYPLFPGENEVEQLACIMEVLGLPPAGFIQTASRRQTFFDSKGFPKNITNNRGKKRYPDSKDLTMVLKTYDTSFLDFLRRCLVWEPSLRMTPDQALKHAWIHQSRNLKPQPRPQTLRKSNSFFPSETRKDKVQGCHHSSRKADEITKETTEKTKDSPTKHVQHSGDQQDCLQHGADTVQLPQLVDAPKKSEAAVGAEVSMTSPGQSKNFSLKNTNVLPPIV

[2] = target: Tyrosine-protein kinase Fes/Fps (Homo sapiens) (UniProt P07332); experiment: Selectivity interaction (KinomeScan (DiscoverX)) EUB0000666a FES; conditions: at 10 µM
[3] = target: Ribosomal protein S6 kinase alpha-5 (Homo sapiens) (UniProt O75582); experiment: Selectivity interaction (KinomeScan (DiscoverX)) EUB0000311b RPS6KA5; conditions: at 1 µM
[4] = target: Tyrosine-protein kinase FRK (Homo sapiens) (UniProt P42685); experiment: Selectivity interaction (KinomeScan (DiscoverX)) EUB0000607a FRK; conditions: at 10 µM
Sequence of Tyrosine-protein kinase FRK (Homo sapiens) (P42685 whole entry): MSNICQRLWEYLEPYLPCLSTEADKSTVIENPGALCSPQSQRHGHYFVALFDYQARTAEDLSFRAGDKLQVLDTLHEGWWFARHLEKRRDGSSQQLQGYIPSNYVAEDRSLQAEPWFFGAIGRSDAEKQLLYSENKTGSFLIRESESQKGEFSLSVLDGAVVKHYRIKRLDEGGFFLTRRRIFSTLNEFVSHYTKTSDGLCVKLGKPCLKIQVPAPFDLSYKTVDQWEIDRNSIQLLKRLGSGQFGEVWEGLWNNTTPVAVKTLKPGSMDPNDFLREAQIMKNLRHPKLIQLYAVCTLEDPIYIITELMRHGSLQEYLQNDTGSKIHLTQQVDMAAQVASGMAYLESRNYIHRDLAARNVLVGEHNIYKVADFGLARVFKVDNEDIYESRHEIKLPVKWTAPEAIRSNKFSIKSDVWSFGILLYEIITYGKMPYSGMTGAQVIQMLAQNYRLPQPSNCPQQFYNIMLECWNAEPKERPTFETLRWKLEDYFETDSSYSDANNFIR

[5] = target: Tyrosine-protein kinase Lck (Homo sapiens, UniProt P06239); experiment: Selectivity interaction (Upstate Kinase Profiler service (Millipore)) EUB0000056c LCK; conditions: at 1 µM
Sequence of Tyrosine-protein kinase Lck (P06239 2-509 limits assumed): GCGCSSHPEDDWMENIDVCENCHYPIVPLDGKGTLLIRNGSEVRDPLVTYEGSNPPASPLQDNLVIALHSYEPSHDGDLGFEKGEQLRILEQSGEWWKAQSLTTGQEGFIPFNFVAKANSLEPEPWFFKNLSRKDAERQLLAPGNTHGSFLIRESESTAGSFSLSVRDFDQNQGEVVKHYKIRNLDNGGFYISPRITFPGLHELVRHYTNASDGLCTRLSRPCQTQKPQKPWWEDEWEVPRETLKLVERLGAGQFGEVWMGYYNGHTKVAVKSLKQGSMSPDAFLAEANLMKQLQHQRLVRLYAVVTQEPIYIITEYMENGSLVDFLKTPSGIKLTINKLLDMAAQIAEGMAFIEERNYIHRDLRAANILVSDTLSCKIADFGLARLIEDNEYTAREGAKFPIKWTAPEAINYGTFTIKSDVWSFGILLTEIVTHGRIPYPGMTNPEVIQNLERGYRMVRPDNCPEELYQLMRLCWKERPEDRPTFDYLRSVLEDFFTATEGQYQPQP

[6] = target: CDK6/Cyclin D (Homo sapiens) (UniProt P24385+P30281+Q00534+P30279); experiment: Selectivity interaction (Upstate Kinase Profiler service (Millipore)) EUB0000056c CDK6; format: protein-complex assay; conditions: at 1 µM
Sequence of CDK6/Cyclin D (Homo sapiens) (P24385 whole entry, looked up): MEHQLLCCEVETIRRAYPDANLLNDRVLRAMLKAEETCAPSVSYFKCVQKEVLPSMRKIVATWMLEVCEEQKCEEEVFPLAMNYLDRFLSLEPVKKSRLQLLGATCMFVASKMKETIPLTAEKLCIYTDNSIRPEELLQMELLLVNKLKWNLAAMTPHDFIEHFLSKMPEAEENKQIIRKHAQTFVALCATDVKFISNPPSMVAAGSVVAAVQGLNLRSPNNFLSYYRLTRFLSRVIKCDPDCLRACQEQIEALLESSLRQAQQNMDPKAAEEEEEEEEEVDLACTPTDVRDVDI
Sequence of CDK6/Cyclin D (Homo sapiens) (P30279 whole entry, looked up): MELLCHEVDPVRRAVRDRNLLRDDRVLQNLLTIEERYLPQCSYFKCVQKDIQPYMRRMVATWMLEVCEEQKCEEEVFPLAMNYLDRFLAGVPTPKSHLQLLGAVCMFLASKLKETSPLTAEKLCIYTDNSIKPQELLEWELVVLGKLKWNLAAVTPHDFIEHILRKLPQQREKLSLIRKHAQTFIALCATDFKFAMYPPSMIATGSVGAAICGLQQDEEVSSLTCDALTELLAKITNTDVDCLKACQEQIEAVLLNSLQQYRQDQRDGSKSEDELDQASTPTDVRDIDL
Sequence of CDK6/Cyclin D (Homo sapiens) (P30281 whole entry, looked up): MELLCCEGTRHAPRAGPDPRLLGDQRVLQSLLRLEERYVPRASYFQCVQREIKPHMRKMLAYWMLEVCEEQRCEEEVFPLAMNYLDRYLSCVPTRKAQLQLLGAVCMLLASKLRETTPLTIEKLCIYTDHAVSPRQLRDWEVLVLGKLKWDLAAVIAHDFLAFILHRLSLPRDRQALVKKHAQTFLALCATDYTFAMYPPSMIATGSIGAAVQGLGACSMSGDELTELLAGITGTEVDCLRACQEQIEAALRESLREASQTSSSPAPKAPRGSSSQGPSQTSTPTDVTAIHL
Sequence of CDK6/Cyclin D (Homo sapiens) (Q00534 whole entry, looked up): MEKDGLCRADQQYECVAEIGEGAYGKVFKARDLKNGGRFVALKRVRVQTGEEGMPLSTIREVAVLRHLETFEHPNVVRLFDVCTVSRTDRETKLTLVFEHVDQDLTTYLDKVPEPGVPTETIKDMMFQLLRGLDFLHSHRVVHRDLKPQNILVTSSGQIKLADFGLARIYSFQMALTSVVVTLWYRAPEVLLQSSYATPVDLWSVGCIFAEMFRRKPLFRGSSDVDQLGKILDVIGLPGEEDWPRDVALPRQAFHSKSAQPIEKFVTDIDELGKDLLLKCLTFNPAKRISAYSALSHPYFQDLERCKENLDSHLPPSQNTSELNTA

[7] = target: Phosphatidylinositol 3-kinase catalytic subunit type 3 (Homo sapiens, UniProt Q8NEB9); experiment: Selectivity interaction (ActivX KiNativ screen (kinase selectivity in THP-1 cell lysates)) EUB0000639a PIK3C3; format: subcellular; conditions: lysate
Sequence of Phosphatidylinositol 3-kinase catalytic subunit type 3 (Q8NEB9 whole entry): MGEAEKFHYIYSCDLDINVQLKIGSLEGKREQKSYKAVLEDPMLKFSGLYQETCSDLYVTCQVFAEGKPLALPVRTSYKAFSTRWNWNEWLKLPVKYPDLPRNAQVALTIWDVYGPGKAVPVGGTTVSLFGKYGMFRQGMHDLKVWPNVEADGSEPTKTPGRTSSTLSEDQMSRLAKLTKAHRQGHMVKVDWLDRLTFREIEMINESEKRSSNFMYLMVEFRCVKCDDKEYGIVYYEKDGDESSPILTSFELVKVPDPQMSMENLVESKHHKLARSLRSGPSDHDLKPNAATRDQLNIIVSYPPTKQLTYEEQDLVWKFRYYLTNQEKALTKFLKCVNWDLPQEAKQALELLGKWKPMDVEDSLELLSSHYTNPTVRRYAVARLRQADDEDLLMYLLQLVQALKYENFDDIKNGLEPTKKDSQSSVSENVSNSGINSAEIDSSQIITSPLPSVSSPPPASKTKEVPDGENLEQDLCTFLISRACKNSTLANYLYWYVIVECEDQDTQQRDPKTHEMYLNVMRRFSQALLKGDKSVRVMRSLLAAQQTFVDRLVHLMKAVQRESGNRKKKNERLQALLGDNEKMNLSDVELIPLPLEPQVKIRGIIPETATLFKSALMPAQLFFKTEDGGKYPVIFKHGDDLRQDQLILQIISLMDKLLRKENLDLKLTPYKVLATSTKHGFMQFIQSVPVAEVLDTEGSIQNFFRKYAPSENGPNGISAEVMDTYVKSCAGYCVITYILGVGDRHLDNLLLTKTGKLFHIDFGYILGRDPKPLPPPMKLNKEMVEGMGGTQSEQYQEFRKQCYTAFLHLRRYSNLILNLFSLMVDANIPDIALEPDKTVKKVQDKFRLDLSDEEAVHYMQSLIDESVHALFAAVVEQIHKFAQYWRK

[8] = target: Bone morphogenetic protein receptor type-1A (Homo sapiens, UniProt P36894); experiment: Selectivity interaction (Ambit KINOMEscan and KiNATiv profiling in Jurkat cells) EUB0000090b BMPR1A; format: cell-based; conditions: at 1 µM
[9] = target: T2, Phosphatidylinositol 4,5-bisphosphate 3-kinase catalytic subunit delta isoform (Homo sapiens) (UniProt O00329); experiment: Selectivity interaction (KinomeScan (DiscoverX)) EUB0001079a PIK3CD; conditions: at 1 µM
T2 sequence (whole entry): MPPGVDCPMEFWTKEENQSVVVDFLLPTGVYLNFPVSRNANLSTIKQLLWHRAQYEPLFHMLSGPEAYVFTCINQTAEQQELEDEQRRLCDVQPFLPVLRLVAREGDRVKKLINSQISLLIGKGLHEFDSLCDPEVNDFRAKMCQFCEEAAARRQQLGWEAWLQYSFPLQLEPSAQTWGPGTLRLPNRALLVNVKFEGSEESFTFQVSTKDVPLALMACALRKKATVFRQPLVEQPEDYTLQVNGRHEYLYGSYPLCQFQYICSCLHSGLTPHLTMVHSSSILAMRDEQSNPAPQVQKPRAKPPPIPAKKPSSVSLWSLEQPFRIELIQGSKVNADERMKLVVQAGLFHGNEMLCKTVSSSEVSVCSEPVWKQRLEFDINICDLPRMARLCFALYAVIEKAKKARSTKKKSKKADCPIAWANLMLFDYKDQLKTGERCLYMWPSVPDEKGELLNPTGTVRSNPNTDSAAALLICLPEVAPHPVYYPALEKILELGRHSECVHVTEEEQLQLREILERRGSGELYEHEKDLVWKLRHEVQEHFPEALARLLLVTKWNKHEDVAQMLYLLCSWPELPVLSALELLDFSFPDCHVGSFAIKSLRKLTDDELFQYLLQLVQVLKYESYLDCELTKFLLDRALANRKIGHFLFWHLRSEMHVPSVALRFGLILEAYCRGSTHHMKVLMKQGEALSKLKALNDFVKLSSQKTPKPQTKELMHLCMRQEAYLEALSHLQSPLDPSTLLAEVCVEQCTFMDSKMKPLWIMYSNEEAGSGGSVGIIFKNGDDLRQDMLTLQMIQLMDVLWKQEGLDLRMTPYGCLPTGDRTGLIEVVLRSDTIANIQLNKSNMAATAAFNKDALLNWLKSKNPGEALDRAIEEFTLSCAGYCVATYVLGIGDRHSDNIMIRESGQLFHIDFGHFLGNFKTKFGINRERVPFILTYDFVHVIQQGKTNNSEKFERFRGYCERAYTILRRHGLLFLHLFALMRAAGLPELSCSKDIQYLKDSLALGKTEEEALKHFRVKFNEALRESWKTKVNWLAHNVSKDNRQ

[10] = target: Cyclin-dependent kinase 17 (Homo sapiens) (UniProt Q00537); experiment: Selectivity interaction (KinomeScan (DiscoverX)) EUB0001079a CDK17; conditions: at 1 µM
Sequence of Cyclin-dependent kinase 17 (Homo sapiens) (Q00537 whole entry, looked up): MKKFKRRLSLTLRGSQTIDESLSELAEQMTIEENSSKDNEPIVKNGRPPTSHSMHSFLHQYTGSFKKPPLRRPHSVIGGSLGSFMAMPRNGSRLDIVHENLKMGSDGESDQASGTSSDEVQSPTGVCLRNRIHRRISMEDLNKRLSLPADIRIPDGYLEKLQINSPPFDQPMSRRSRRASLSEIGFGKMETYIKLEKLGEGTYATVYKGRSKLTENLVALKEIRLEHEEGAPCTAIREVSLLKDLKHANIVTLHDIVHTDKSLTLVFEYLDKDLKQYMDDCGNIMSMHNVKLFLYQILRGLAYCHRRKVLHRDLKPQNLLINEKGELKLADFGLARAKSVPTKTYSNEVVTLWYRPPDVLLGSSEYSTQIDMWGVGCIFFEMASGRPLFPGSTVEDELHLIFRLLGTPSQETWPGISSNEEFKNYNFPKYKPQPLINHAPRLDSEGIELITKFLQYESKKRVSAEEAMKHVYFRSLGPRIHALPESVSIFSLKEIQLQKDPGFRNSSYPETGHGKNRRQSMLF

[11] = Selectivity interaction (Kinase panel (KiNativ target engagement assay in Jurkat cells)) EUB0001635a STLK6; conditions: Selectivity number of off-targets 0; Selectivity number of targets 233; Source Knowledge https://www.sciencedirect.com/science/article/pii/S2451945619300674?via%3Dihub; at 1 µM
[12] = target: Homeodomain-interacting protein kinase 3 (Homo sapiens, UniProt Q9H422); conditions: at 10 µM
Sequence of Homeodomain-interacting protein kinase 3 (Q9H422 whole entry, looked up): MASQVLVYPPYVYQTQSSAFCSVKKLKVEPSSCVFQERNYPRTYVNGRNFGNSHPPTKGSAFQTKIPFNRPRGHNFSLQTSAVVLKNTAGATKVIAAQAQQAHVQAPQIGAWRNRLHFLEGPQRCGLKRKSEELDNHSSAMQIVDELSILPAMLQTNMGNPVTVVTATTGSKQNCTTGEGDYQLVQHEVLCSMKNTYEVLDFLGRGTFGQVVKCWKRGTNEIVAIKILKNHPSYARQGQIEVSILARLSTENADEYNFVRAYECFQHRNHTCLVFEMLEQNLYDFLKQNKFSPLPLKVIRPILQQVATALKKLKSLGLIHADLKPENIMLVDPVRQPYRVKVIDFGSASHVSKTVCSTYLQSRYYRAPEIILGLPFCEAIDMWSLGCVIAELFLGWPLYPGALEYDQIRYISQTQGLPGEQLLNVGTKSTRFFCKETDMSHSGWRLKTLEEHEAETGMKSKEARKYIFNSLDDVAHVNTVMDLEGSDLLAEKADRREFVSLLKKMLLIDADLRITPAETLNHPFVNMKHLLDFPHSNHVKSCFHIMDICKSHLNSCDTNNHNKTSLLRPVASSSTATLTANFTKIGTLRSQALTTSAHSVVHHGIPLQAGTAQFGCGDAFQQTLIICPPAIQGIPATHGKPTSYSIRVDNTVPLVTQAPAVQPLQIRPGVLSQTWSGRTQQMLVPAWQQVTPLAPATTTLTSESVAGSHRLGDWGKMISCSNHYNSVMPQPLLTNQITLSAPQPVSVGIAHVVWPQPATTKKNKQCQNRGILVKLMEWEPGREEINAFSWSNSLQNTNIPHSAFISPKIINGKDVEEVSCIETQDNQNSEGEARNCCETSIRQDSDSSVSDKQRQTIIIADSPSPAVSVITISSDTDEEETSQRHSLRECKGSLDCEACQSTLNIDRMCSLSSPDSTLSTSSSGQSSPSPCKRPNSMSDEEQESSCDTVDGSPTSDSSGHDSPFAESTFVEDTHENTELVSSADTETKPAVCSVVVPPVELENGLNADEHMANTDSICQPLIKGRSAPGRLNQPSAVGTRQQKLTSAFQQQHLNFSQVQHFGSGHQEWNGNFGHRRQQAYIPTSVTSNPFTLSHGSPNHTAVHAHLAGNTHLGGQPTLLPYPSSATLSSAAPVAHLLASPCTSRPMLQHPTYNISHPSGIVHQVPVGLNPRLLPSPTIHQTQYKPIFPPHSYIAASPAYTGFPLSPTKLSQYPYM

[13] = target: Serine/threonine-protein kinase mTOR (Homo sapiens, UniProt P42345); experiment: Selectivity interaction (ActivX KiNativ screen (ex vivo kinase selectivity in human PBMCs)) EUB0001619a MTOR; format: cell-based; conditions: PBMC, at 1 µM
[14] = target: Serine/threonine-protein kinase PAK 1 (Homo sapiens) (UniProt Q13153); experiment: Selectivity interaction (KinomeScan (DiscoverX)) EUB0001619a PAK1; conditions: at 1 µM

- % of control [1]: 0.0605%
Structure (SMILES): Cn1cc(-n2cnc3c(NCc4nc5cc(Cl)c(Cl)cc5[nH]4)nc(N4CCOCC4)nc32)cn1

Structure (SMILES): O=C(NOC[C@H](O)CO)c1ccc(F)c(F)c1Nc1ccc(I)cc1F
- % of control [2]: 100%

- % of control [3]: 1%
Structure (SMILES): CCc1ccccc1C(=O)Nc1n[nH]c2c(C)c(F)c(C3C(C#N)=C(C)N(C)C(C)=C3C#N)cc12 [BAY-3827]

Structure (SMILES): CNC(=O)Nc1ccc(-c2nc(N3CC4CCC(C3)O4)c3cnn(C4CCC5(CC4)OCCO5)c3n2)cc1
- % of control [4]: 68%

- % of inhibition [5]: -3%
- % of inhibition [6]: 5%
Structure (SMILES): Cc1ccc(-c2ccc3c(ccc4sc5c(c43)NC[C@@H](C)NC5=O)n2)cn1

- % of inhibition ([7]; at 0.01 µM): 1%
- % of inhibition ([7]; at 0.04 µM): -8.9%
- % of inhibition ([7]; at 0.2 µM): -9.3%
- % of inhibition ([7]; at 1 µM): 2.6%
- % of inhibition ([7]; at 5 µM): 6.3%
Structure (SMILES): CC[C@@H]1[C@H](F)C(=O)N[C@@H]1COc1nccc2cc(C(N)=O)c(OC)cc12 [ZIMLOVISERTIB]

Structure (SMILES): CN(C)C/C=C/C(=O)Nc1ccc(C(=O)N2CCCC(Nc3ncc(Cl)c(-c4c[nH]c5ccccc45)n3)C2)cc1 (stereo not drawn)
- % of control [8]: 100%

Structure (SMILES): Nc1cnc(N2CCc3cc(S(=O)(=O)Nc4c(F)cc(Cl)cc4F)cc(N4CCCC4=O)c32)nc1 [TP-020n]
- % of control [9]: 88%
- % of control [10]: 100%

Structure (SMILES): C=CC(=O)Nc1ccc(C(=O)Nc2[nH]nc3c2CN(C(=O)N[C@H](CN(C)C)c2ccccc2)C3(C)C)cc1
- % of engagement [11]: -9%

Structure (SMILES): Cc1cc([C@@H](C)Nc2ccccc2C(=O)O)c2nc(N3CCOCC3)cc(=O)n2c1 [AZD-6482]
- % of control [12]: 89%

Structure (SMILES): N#Cc1cccc(-c2c[nH]c3ncnc(N4CCOCC4)c23)c1
- % of inhibition [13]: 10%
- % of control [14]: 100%
